In PubChem BioAssay (NCI):
Values joined by “and” are separate entries in the source; they are usually repeats but may differ in a detail not shown here. Equal values may be shown once.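 Following 48 hours of exposure in 96-well plates, responses at five concentrations were used to interpolate endpoints linearly. Here, GI50 denotes the concentration required for 50% inhibition of growth. Definition used: TGI = concentration required for complete inhibition of growth.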

Legend:
Assay in all cases: inhibition of tumour cell growth, NCI panel, 48 h
ACHN renal = tested on: ACHN renal
HCC-2998 colon = tested on: HCC-2998 colon
K-562 leukemia = tested on: K-562 leukemia
KM12 colon = tested on: KM12 colon
MALME-3M melanoma = tested on: MALME-3M melanoma
MDA-N = tested on: MDA-N
NCI-H23 lung = tested on: NCI-H23 lung
NCI-H522 lung = tested on: NCI-H522 lung
SF-539 CNS = tested on: SF-539 CNS
SNB-75 CNS = tested on: SNB-75 CNS

| Structure (SMILES) | TGI (ACHN renal) | TGI (HCC-2998 colon) | TGI (K-562 leukemia) | TGI (KM12 colon) | TGI (MALME-3M melanoma) | TGI (MDA-N) | TGI (NCI-H23 lung) | TGI (NCI-H522 lung) | TGI (SF-539 CNS) | GI50 (SNB-75 CNS) | TGI (SNB-75 CNS) |
| --- | --- | --- | --- | --- | --- | --- | --- | --- | --- | --- | --- |
| O=[N+]([O-])c1cccc2nc3ccccc3c(NCCCCCNc3c4ccccc4nc4cccc([N+](=O)[O-])c34)c12 | 0.115 µM and 0.0165 µM | 0.103 µM and 0.04 µM | 0.678 µM | 0.249 µM and 0.029 µM | 0.16 µM | 0.191 µM | 0.185 µM | 0.388 µM | 0.135 µM and 0.0297 µM | 0.041 µM | 0.867 µM and 0.827 µM |
| Cc1ccc(S[C@@](C=O)(NC(=O)OCc2ccccc2)C(F)(F)F)cc1 | – | > 100 µM | > 100 µM | 52.8 µM | 78.3 µM | 58.5 µM | 39.8 µM | – | 70.9 µM | – | 80 µM |
| NCCOc1cccc(C2(N3CCCCC3)CCCCC2)c1 | > 100 µM | 37.5 µM | 35.1 µM | > 100 µM | 35.1 µM | 33.3 µM | > 100 µM | 36.1 µM | 32.3 µM | – | > 100 µM |
| CCN1CCC(O)(c2ccc([N+](=O)[O-])cc2)C(C(=O)c2ccc([N+](=O)[O-])cc2)C1 (stereo not given) | 32 µM | 32.8 µM | > 100 µM | 32.1 µM | 48.6 µM | 39.1 µM | 36.4 µM | 15.1 µM | 30.7 µM | – | > 100 µM |
| N#Cc1c(NC(=O)C(F)(F)F)sc2c3c(=O)c4ccccc4c(=O)c=3oc3ccccc3c12 | > 58 µM | 31 µM | 75.3 µM | 26 µM | 13.1 µM | 36.5 µM | 38.4 µM | 32.6 µM | 32.1 µM | – | 39.4 µM |
| COc1ccc(-c2oc3cc(-c4cc5oc(-c6ccc(OC)cc6)c(-c6ccc(OC)cc6)c5cc4OC)c(OC)cc3c2-c2ccc(OC)cc2)cc1 | > 100 µM | > 100 µM | > 100 µM | > 100 µM | > 100 µM | > 100 µM | > 100 µM | > 100 µM | > 100 µM | – | > 100 µM |
| Clc1ccc(C=Nc2ccc(Oc3ccc(Cl)cc3)c(Cl)c2)cc1 | > 100 µM | 45.6 µM | – | 52.5 µM | 49.2 µM | 38.8 µM | 54.2 µM | 32.3 µM | 35.4 µM | – | 52.6 µM |
| COC(CN(C)C(=S)Nc1cccc2ccccc12)OC | > 10 µM | > 10 µM | > 10 µM | > 10 µM | > 10 µM | > 10 µM | > 10 µM | > 10 µM | > 10 µM | – | > 10 µM |
| COC(=O)/C=C/c1ccc(OP(=O)(O)O)c(OC)c1 | > 100 µM | > 100 µM | – | > 100 µM | > 100 µM | > 100 µM | > 100 µM | > 100 µM | > 100 µM | – | > 100 µM |
| Cc1cc(N(CCC#N)CCC#N)ccc1/C(N=Nc1ccccc1)=N\NC(=O)c1cc(Cl)ccc1O | 42.6 µM | 31.8 µM | > 100 µM | > 100 µM | 78.3 µM | > 100 µM | 35.1 µM | 31 µM | 58.3 µM | – | > 100 µM |
| Oc1c(N2CCCCC2)cc(-c2cc(N3CCCCC3)c(O)c3ccccc23)c2ccccc12 | > 100 µM | > 100 µM | > 100 µM | > 100 µM | 24.3 µM | 33.5 µM | 79.7 µM | – | 81.8 µM | – | – |
